Measurements: US4983593A, “Pharmaceutical composition of dihydropyridine compound” (priority 1988, dated 1991)
Structures can show the parent of a compound that is named as a salt.

Key:
[1] = Solubility improvement of NZ-105 by pulverizing or by formulating other polymers; type: physicochemical; conditions: pulverizing crystals
Excerpt: This entailed larger size tablets. […] This also entailed larger size tablets.

[2] = background; cited from earlier work
[3] = background; cited from earlier work; remark: listed apart in the source

SMILES	Improvement in solubility (in words) [1]	Solubility in water (in words) [2]	Absorption through gastrointestinal tracts (in words) [3]
CC1=C(C(=O)OCCN(Cc2ccccc2)c2ccccc2)C(c2cccc([N+](=O)[O-])c2)C(P2(=O)OCC(C)(C)CO2)=C(C)N1 (stereo not drawn) [NZ-105, 5-(5,5-dimethyl-1,3,2-dioxaphosphorinane-2-yl)-1,4-dihydro-2,6-dimethyl-4-(3-nitrophenyl)-3-pyridine carboxylic acid 2-(phenyl(phenylmethyl)amino) ethyl ester P-oxide hydrochlorideethanol]	did not result in an improvement in the solubility of NZ-105 of a degree to promote its bioavailability	–	–
COC(=O)C1=C(C)NC(C)=C(C(=O)OCCN(C)Cc2ccccc2)C1c1cccc([N+](=O)[O-])c1 (stereo not drawn) [Nicardipine]	–	very poor solubility in water	can not be absorbed through gastrointestinal tracts in a sufficient amount
